According to publication PMC4503980 (Scientific Reports, 2015):

Experiments:
Format in all cases: binding
PDZ1 of PSD-95 = target: T1, PDZ1 of PSD-95 (Homo sapiens, UniProt P78352); experiment: FP inhibition assay, Cy5-GluN2B probe / PDZ1; conditions: concentrations reaching 500–1800 μM; Cy5-GluN2B 50 nM; [PDZ1] = 10 μM (ZL006) or 18 μM (IC87201)
T1 construct: PDZ1 (61-151); made in house; host or cells: E. coli BL21-DE3 pLysS
Method: (§1) Fluorescent probes were made by attaching fluorophores (Cy5) to C-terminal 10- or 11-mer (C10 or C11) peptide ligands representing canonical and natural occurring protein partners (Supplementary Table S1). […] (Fig. 2).
(§2) (b) Cy5-GluN2B as probe (50 nM), [PDZ2] = 6 μM. (c) Cy5-CRIPT as probe (50 nM), [PDZ3] = 5 μM. […] Error bars indicate SEM based on three individual measurements. […]
(§3) Incubation time was 10–15 minutes (room temperature), and the assay was performed in a 1 × TBS buffer (150 mM NaCl, 10 mM Tris, pH 7.4) using black flat-bottom 384-well plates (Corning Life Sciences, NY) and a Safire2 plate-reader (Tecan, Männedorf, Switzerland). […] TAMRA- and Cy5-probes were measured at excitation/emission values of 530/585 nm (bandwidth = 20 nm) and 635/670 nm (bandwidth = 15 nm), respectively. […]
(§4) FP values were fitted to the general equation: Y = Bottom + (Top–Bottom)/[1 + (10^(X-logIC50)*HillSlope)], where X is the logarithmic value of peptide/compound concentration, and Y is the experimental FP values. Competitive inhibition constants, Ki values, were calculated from the IC50 values to quantify affinities between test substance and protein[42]. […]

PDZ3 of PSD-95 = target: T2, PDZ3 of PSD-95 (Homo sapiens, UniProt P78352); experiment: FP inhibition assay, Cy5-CRIPT probe / PDZ3; conditions: concentrations reaching 500–1800 μM; Cy5-CRIPT 50 nM; [PDZ3] = 5 μM
T2 construct: PDZ3 (309-401); made in house; host or cells: E. coli BL21-DE3 pLysS
Method: as §1, §2, §3, §4

nNOS-PDZ = target: T3, nNOS-PDZ (Homo sapiens, UniProt P29475); experiment: FP saturation and inhibition assay, Cy5-Nav1.4 probe / nNOS-PDZ; conditions: concentrations reaching 500–1800 μM; Cy5-Nav1.4 50 nM; [nNOS-PDZ] = 20 μM (ZL006) or 10 μM (IC87201)
T3 construct: nNOS-PDZ (12–130, human); made in house; host or cells: E. coli
T3 sequence (P29475 12-130): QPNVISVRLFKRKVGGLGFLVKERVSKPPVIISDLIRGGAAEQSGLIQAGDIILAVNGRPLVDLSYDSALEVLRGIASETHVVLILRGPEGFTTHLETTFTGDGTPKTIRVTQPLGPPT
Method: as §1
(b) Cy5-GluN2B as probe (50 nM), [PDZ2] = 6 μM. (c) Cy5-CRIPT as probe (50 nM), [PDZ3] = 5 μM. […] Error bars indicate SEM based on three individual measurements.
nNOS-PDZ (12–130, human) and α-Syntrophin-PDZ (82–200, human), both comprising an N-terminal His-tag/FXa-site sequence ([…]), were likewise expressed in E. coli and purified by HisTrap chromatography followed by gel-filtration as described in details previously. To make the TAMRA-labelled nNOS-PDZ, mutant nNOS-PDZ (V36C) protein was generated by standard site-directed mutagenesis and characterized as described previously. Here, dithiothreitol was added to the pooled protein sample after HisTrap purification to a final concentration of 10 mM to eliminate unwanted disulfide bonds, and a final gel-filtration (50 mM NaPi buffer pH 7.5) was performed to remove impurities and salts. Next, purified nNOS-PDZ (V36C) was desalted by dialysis into 50 mM (NH4)2CO3 buffer (SnakeSkin dialysis tubing 3.5 MWCO, Pierce, Rockford, IL, USA) and subsequently lyophilized. nNOS-PDZ (V36C) was redissolved in 500 μL buffer (6 M GnHCl, 200 mM NaPi) and solid TAMRA-maleimide (5-tetramethylrhodamine-C2-maleimide; Anaspec, Fremont, CA, USA) was added in excess (cf. ESI-LC-MS). The coupling reaction was incubated at room temperature for 16 hours and TAMRA-labelled nNOS-PDZ was purified by preparative HPLC, and refolded in assay buffer. Functional validation was performed by FP[19], and all final proteins were characterized for purity and identity by SDS-PAGE and ESI-LC-MS.
Incubation time was 10–15 minutes (room temperature), and the assay was performed in a 1 × TBS buffer (150 mM NaCl, 10 mM Tris, pH 7.4) using black flat-bottom 384-well plates (Corning Life Sciences, NY) and a Safire2 plate-reader (Tecan, Männedorf, Switzerland). G-factor was adjusted so that probe alone (i.e. without protein interacting-partner) would give an FP value of 20 mP. This background value was subsequently subtracted from the raw data before plotting and analyzing the data. TAMRA- and Cy5-probes were measured at excitation/emission values of 530/585 nm (bandwidth = 20 nm) and 635/670 nm (bandwidth = 15 nm), respectively. […]
as §4

[1] = target: T4, nNOS-PDZ/PSD-95-PDZ2 interaction (Homo sapiens, UniProt P29475); experiment: 'indirect' FP assay, Cnskr2 probe / PSD-95-PDZ2 / nNOS-PDZ; conditions: for activity in indirect FP assay (nNOS-PDZ/PSD-95-PDZ2): up to 500–600 μM, Cy5-Cnskr2 5 nM / PSD-95-PDZ2 3 μM / nNOS-PDZ 5 μM
T4 construct: nNOS-PDZ (12–130, human); PDZ2 (155-249); made in house; host or cells: E. coli
T4 sequence (P29475 12-130): as above
Text: First we tested a series of 23 fluorescent-labelled C-terminal peptide ligands (Supplementary Table S1) derived from PDZ-interacting proteins in order to find a probe with good activity towards the PSD-95 PDZ domains and no or little activity against nNOS-PDZ (Supplementary Fig. S1). The Cnskr2 probe fulfilled these selectivity criteria and was used to generate saturation curves with PDZ2 and PDZ1-2 of PSD-95 (Fig. 4a). […] Next, fixed concentrations of TAMRA-Cnskr2, PSD-95-PDZ2/1-2, and nNOS-PDZ were applied, corresponding to the conditions at IC50 of the nNOS-PDZ inhibition curve (Fig. 4b) where sensitivity of the assay is greatest. […] Here, we used the Sapk3-peptide as it has the desired high affinity to α1-Syntrophin-PDZ and low affinity to nNOS-PDZ (Supplementary Fig. S1).
The minor increases in mP at high concentrations, 260-2900 μM, were due to fluorescence artefacts.
Similar, this assay was established with Syntrophin-PDZ and Sapk3 as probe (Fig. 4d).
In all cases, the DMSO effect on the assay was tested and found negligible.

| inhibition of probe-PDZ interaction (PDZ1) (PDZ1 of PSD-95) | inhibition of probe-PDZ interaction (PDZ3) (PDZ3 of PSD-95) | inhibition of probe-PDZ interaction (nNOS-PDZ) (nNOS-PDZ) | activity in indirect FP assay (nNOS-PDZ/PSD-95-PDZ2) [1] | rise in FP signal (inhibition of nNOS-PDZ/PSD-95-PDZ2) ([1]; ZL006 0-2900 μM, TAMRA-Cnskr2 5 nM / PSD-95-PDZ2 […] / nNOS-PDZ 1 μM) | Structure (SMILES) |
| --- | --- | --- | --- | --- | --- |
| did not inhibit | did not inhibit | did not inhibit | no activity |  | Oc1c(Cl)cc(Cl)cc1CNc1ccc2[nH]nnc2c1 [IC87201, 2-((1H-Benzo[d][1–3]triazol-5-ylamino)methyl)-4-6-dichlorophenol] |
| did not inhibit | did not inhibit | did not inhibit | no activity | no rise in FP signal | O=C(O)c1ccc(NCc2cc(Cl)cc(Cl)c2O)cc1O [ZL006, 4-((3,5-Dichloro-2-hydroxybenzyl)amino)-2-hydroxybenzoic acid] |
